Reference: ChEMBL document CHEMBL1201862, “PubChem BioAssay data set” (2004)
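1) Cells in 96-well plates. 2) Compound, 48 h, 5 concentrations. 3) Linear interpolation between surrounding doses. 4) Unreached endpoint = highest concentration. GI50: concentration for 50% inhibition of growth.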 The source made the active and inactive calls. Rule as the data show it: active = GI50 up to about 1.1 µM and inactive = higher. Square brackets hold non-standard residues; d marks the D form. Peptide text beside a SMILES is read from it. pGlu = O=C1CC[C@@H](C(=O)O)N1; Thz = O=C(O)[C@@H]1CSCN1

Tests used:
Assay in all cases: NCI-60 cell line screen, 48 h
EKVX = test system: EKVX
HOP-62 = test system: HOP-62
LOX IMVI = test system: LOX IMVI
M14 = test system: M14
MCF7 = test system: MCF7
Malme-3M = test system: Malme-3M
NCI-H522 = test system: NCI-H522
NCI/ADR-RES = test system: NCI/ADR-RES
OVCAR-3 = test system: OVCAR-3
OVCAR-4 = test system: OVCAR-4
OVCAR-5 = test system: OVCAR-5
OVCAR-8 = test system: OVCAR-8
RPMI-8226 = test system: RPMI-8226
SF-539 = test system: SF-539
SK-MEL-2 = test system: SK-MEL-2
SK-OV-3 = test system: SK-OV-3
SR = test system: SR
TK-10 = test system: TK-10
UACC-257 = test system: UACC-257
A498 = test system: A498

| SMILES | GI50 (EKVX) | GI50 (HOP-62) | GI50 (LOX IMVI) | GI50 (M14) | GI50 (MCF7) | GI50 (Malme-3M) | GI50 (NCI-H522) | GI50 (NCI/ADR-RES) | GI50 (OVCAR-3) | GI50 (OVCAR-4) | GI50 (OVCAR-5) | GI50 (OVCAR-8) | GI50 (RPMI-8226) | GI50 (SF-539) | GI50 (SK-MEL-2) | GI50 (SK-OV-3) | GI50 (SR) | GI50 (TK-10) | GI50 (UACC-257) | GI50 (A498) |
| --- | --- | --- | --- | --- | --- | --- | --- | --- | --- | --- | --- | --- | --- | --- | --- | --- | --- | --- | --- | --- |
| O=C(/C=C/c1cccs1)c1cccc(C(=O)/C=C/c2cccs2)n1 | > 100 µM (inactive) | 25.4 µM (inactive) | 2.05 µM (inactive) | > 91.2 µM (inactive) | 1.25 µM (inactive) | > 100 µM (inactive) | 22.1 µM (inactive) | > 60 µM (inactive) | 42.2 µM (inactive) | > 100 µM (inactive) | > 73.1 µM (inactive) | 3.68 µM (inactive) | 2.97 µM (inactive) | 6 µM (inactive) | > 100 µM (inactive) | > 100 µM (inactive) | 2.26 µM (inactive) | > 100 µM (inactive) | > 100 µM (inactive) | – |
| COC(=O)c1ccc(C)cc1C1CN=NC12Cc1cccc(C)c1C2=O (stereo unspecified) | 27.6 µM (inactive) | 71.3 µM (inactive) | 28.6 µM (inactive) | 19.6 µM (inactive) | 91.2 µM (inactive) | 27.8 µM (inactive) | 28.1 µM (inactive) | 25.4 µM (inactive) | 32.8 µM (inactive) | 26.5 µM (inactive) | > 100 µM (inactive) | 21.1 µM (inactive) | 20.8 µM (inactive) | 90.4 µM (inactive) | 23.8 µM (inactive) | 90.4 µM (inactive) | 82.8 µM (inactive) | > 100 µM (inactive) | 29.7 µM (inactive) | – |
| CN(C)c1nc2oc(-c3ccccc3)c(-c3ccccc3)c2c2nnnn12 | > 100 µM (inactive) | – | > 100 µM (inactive) | > 100 µM (inactive) | > 100 µM (inactive) | – | > 100 µM (inactive) | > 100 µM (inactive) | – | > 100 µM (inactive) | > 100 µM (inactive) | > 100 µM (inactive) | > 100 µM (inactive) | > 100 µM (inactive) | – | > 100 µM (inactive) | > 100 µM (inactive) | > 100 µM (inactive) | > 100 µM (inactive) | > 100 µM (inactive) |
| O=C1/C(=C/C=C/c2ccccc2)CCC1CNc1ccc(Br)cc1 (stereo unspecified) | > 100 µM (inactive) | > 100 µM (inactive) | > 100 µM (inactive) | 77.6 µM (inactive) | 21 µM (inactive) | 0.106 µM (active) | 21.3 µM (inactive) | > 10 µM (inactive) | > 100 µM (inactive) | 57.7 µM (inactive) | > 100 µM (inactive) | > 100 µM (inactive) | 5.47 µM (inactive) | > 100 µM (inactive) | – | 88.1 µM (inactive) | 23.3 µM (inactive) | 43.3 µM (inactive) | > 100 µM (inactive) | 68.9 µM (inactive) |
| O=C(NCCc1n[nH]c2c1C(=O)C=C(Nc1ccccc1)C2=O)OCc1ccccc1 | > 100 µM (inactive) | – | > 100 µM (inactive) | > 100 µM (inactive) | > 100 µM (inactive) | – | > 100 µM (inactive) | > 100 µM (inactive) | > 100 µM (inactive) | 66.4 µM (inactive) | > 100 µM (inactive) | > 100 µM (inactive) | > 100 µM (inactive) | > 100 µM (inactive) | > 100 µM (inactive) | > 100 µM (inactive) | > 100 µM (inactive) | > 100 µM (inactive) | > 100 µM (inactive) | > 100 µM (inactive) |
| O=C(Nc1nnc(-c2c(Cl)c(Cl)c(Cl)c(Cl)c2-c2nc3cc(C(=O)c4ccccc4)ccc3[nH]2)o1)c1ccccc1 | 17.9 µM (inactive) | 10.4 µM (inactive) | 15.1 µM (inactive) | 15.4 µM (inactive) | 10.9 µM (inactive) | – | – | 14 µM (inactive) | 15 µM (inactive) | 21 µM (inactive) | 26.4 µM (inactive) | 26.9 µM (inactive) | 12.4 µM (inactive) | 11.5 µM (inactive) | 17.7 µM (inactive) | 18.9 µM (inactive) | 4.9 µM (inactive) | 21.8 µM (inactive) | 23.2 µM (inactive) | 18.2 µM (inactive) |
| O=C(O)C[C@@H]1[C@@H](O)[C@@H](O)CN2C(=O)c3ccccc3[C@H]12 | > 100 µM (inactive) | > 100 µM (inactive) | > 100 µM (inactive) | > 100 µM (inactive) | > 100 µM (inactive) | > 100 µM (inactive) | > 100 µM (inactive) | > 100 µM (inactive) | – | > 100 µM (inactive) | > 100 µM (inactive) | > 100 µM (inactive) | > 100 µM (inactive) | > 100 µM (inactive) | > 100 µM (inactive) | > 100 µM (inactive) | > 100 µM (inactive) | > 100 µM (inactive) | > 100 µM (inactive) | > 100 µM (inactive) |
| COc1cccc(N2N=C3c4ccccc4-n4c(nc5ccccc54)C3C2N)c1 (stereo unspecified) | > 100 µM (inactive) | > 100 µM (inactive) | > 100 µM (inactive) | 34.1 µM (inactive) | 79.6 µM (inactive) | 66.1 µM (inactive) | > 100 µM (inactive) | > 100 µM (inactive) | > 100 µM (inactive) | > 100 µM (inactive) | 47.2 µM (inactive) | > 100 µM (inactive) | > 100 µM (inactive) | > 100 µM (inactive) | > 100 µM (inactive) | – | 86.5 µM (inactive) | 92.9 µM (inactive) | > 100 µM (inactive) | > 100 µM (inactive) |
| Cc1c(/C=N/NC(=S)Nc2ccc([N+](=O)[O-])cc2)c(=O)n(-c2ccccc2)n1C | 10.1 µM (inactive) | 11.6 µM (inactive) | 15.2 µM (inactive) | 11.2 µM (inactive) | 20 µM (inactive) | – | – | 9.66 µM (inactive) | – | 14.6 µM (inactive) | – | 13.6 µM (inactive) | 48.5 µM (inactive) | 16.4 µM (inactive) | 15.5 µM (inactive) | 13.5 µM (inactive) | 17.4 µM (inactive) | 11.8 µM (inactive) | 30.9 µM (inactive) | 10.9 µM (inactive) |
| CCC(=O)O[C@H]1CC[C@H]2[C@@H]3CCC4=C/C(=N/OC(=O)c5cccc6cc7ccccc7nc56)CC[C@]4(C)[C@H]3CC[C@]12C | 53.6 µM (inactive) | 50.5 µM (inactive) | 33.4 µM (inactive) | 64.1 µM (inactive) | 42.2 µM (inactive) | 29.2 µM (inactive) | 41.4 µM (inactive) | 60.4 µM (inactive) | 29 µM (inactive) | 76 µM (inactive) | > 100 µM (inactive) | 42.3 µM (inactive) | 50.4 µM (inactive) | 43.4 µM (inactive) | 55.2 µM (inactive) | > 100 µM (inactive) | 67.9 µM (inactive) | – | 63.4 µM (inactive) | > 100 µM (inactive) |
| COc1ccc2c(c1)/C(=C\c1c(Cl)nc3sc(C)cn13)C(=O)N2 | 7.59 µM (inactive) | 6.4 µM (inactive) | 4.22 µM (inactive) | 2.69 µM (inactive) | 3.52 µM (inactive) | 2.37 µM (inactive) | 3.05 µM (inactive) | 3.56 µM (inactive) | 2.41 µM (inactive) | – | 9.59 µM (inactive) | 4.06 µM (inactive) | 2.61 µM (inactive) | 2.01 µM (inactive) | 2.87 µM (inactive) | 4.03 µM (inactive) | 0.7 µM (active) | 6.37 µM (inactive) | 4.11 µM (inactive) | 3.7 µM (inactive) |
| Cc1cc(C)c(O)c(CN2CCN(C(C)C)CCN(C(C)C)CC2)c1 | 78.5 µM (inactive) | – | 16.1 µM (inactive) | 12.4 µM (inactive) | 20.8 µM (inactive) | 13.8 µM (inactive) | 16.1 µM (inactive) | 25.9 µM (inactive) | 22.2 µM (inactive) | 46.6 µM (inactive) | 18.7 µM (inactive) | 22.2 µM (inactive) | 21.9 µM (inactive) | 10.4 µM (inactive) | 37.8 µM (inactive) | – | 17.9 µM (inactive) | 36.2 µM (inactive) | 18.5 µM (inactive) | > 100 µM (inactive) |
| Nc1nc(O)c2nc(CNc3ccc(C(=O)NC(CCC(=O)O)C(=O)O)cc3)cnc2n1 (stereo unspecified) | > 100 µM (inactive) | > 100 µM (inactive) | > 100 µM (inactive) | > 100 µM (inactive) | > 100 µM (inactive) | > 100 µM (inactive) | > 100 µM (inactive) | > 100 µM (inactive) | > 100 µM (inactive) | > 100 µM (inactive) | > 100 µM (inactive) | > 100 µM (inactive) | > 100 µM (inactive) | > 100 µM (inactive) | > 100 µM (inactive) | > 10 µM (inactive) | > 100 µM (inactive) | > 100 µM (inactive) | > 100 µM (inactive) | – |
| O=C1CC[C@@H](C(=O)N2CSC[C@H]2C(=O)O)N1 [PIDOTIMOD] ([pGlu]-[Thz]-OH) | – | > 100 µM (inactive) | > 100 µM (inactive) | > 100 µM (inactive) | > 100 µM (inactive) | > 100 µM (inactive) | > 100 µM (inactive) | > 100 µM (inactive) | > 100 µM (inactive) | – | > 100 µM (inactive) | > 100 µM (inactive) | > 100 µM (inactive) | > 100 µM (inactive) | > 100 µM (inactive) | > 100 µM (inactive) | > 100 µM (inactive) | > 100 µM (inactive) | > 100 µM (inactive) | > 100 µM (inactive) |
